EC50 data for 28 compounds are collected here from patent US8629157B2, “Pyrrolidine compounds which modulate the CB2 receptor” (Boehringer Ingelheim International GmbH, priority 2009, dated 2014).

pEC50: −log10 of the molar value.

human CB2R, sequence (P34972 whole entry): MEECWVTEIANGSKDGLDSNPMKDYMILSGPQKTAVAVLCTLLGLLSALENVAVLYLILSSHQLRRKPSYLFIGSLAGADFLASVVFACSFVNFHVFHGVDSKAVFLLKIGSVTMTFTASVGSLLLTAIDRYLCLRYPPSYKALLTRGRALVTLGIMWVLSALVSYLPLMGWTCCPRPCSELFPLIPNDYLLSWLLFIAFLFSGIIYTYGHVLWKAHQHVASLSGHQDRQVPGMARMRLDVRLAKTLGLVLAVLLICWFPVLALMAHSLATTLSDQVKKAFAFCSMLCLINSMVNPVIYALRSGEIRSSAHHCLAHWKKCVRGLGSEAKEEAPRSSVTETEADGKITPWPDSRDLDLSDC

One experiment has as its target human CB2R (Homo sapiens, UniProt P34972). The experiment is described as follows: CB2R mediated modulation of cAMP synthesis. In kind it is cell-based.
Details: not given
The method, then:
B. CB2R Mediated Modulation of cAMP Synthesis:
Compounds of the invention were evaluated for their CB2 agonist or inverse agonistic activity in accordance with the following experimental method.
CHO cells expressing human CB2R (Euroscreen) were plated at a density of 5000 cells per well in 384 well plates and incubated overnight at 37° C. After removing the media, the cells were treated with test compounds diluted in stimulation buffer containing 1 mM IBMX, 0.25% BSA and 10 uM Forskolin. The assay was incubated for 30 minutes at 37° C. Cells were lysed and the cAMP concentration was measured using DiscoverX-XS cAMP kit, following the manufacturer's protocol. In this setting, agonists will decrease forskolin induced production of cAMP while inverse agonists will further increase forskolin induced production of cAMP. EC50 of agonists were calculated as follows. The maximal amount of cAMP produced by forskolin compared to the level of cAMP inhibited by 1 uM CP55940 is defined as 100%. […] Data was analyzed using a four-parameter logistic model. (Model 205 of XLfit 4.0).
By pEC50 is commonly meant the EC50 on a negative log10 scale, so that one unit is a factor of ten. Read a high pEC50 as a small EC50. Turning to `CC(C)(C)c1cc(NC(=O)[C@@H]2CCCN2C(=O)N2CCS(=O)(=O)CC2)on1`, the negative-log EC50 (pEC50) is 7.01.

In the case of `CCC(C)c1ccc(NC(=O)[C@@H]2CCC(=O)N2c2ncc(C(F)(F)F)cc2Cl)cc1` (stereo partly shown), the pEC50 was 7.55.

`O=C(NCCN1CCN(c2nccc(C(F)(F)F)n2)CC1)[C@@H]1CCCN1c1ccc(Cl)cc1` showed a pEC50 of 6.42.

For `CC(C)(C)c1nnc(NC(=O)[C@@H]2CCCN2C2CCCC2(C)C)s1` (stereo partly shown) [1-(2,2-Dimethyl-cyclopentyl)-pyrrolidine-2-carboxylic acid (5-tert-butyl-1,3,4-thiadiazol-2-yl)-amide], the pEC50 was 6.35.

Take `CC1(C)CC(CN2CCCC2C(=O)Nc2cc(C(C)(C)C)no2)CCO1` (stereo not shown) [1-(2,2-Dimethyl-tetrahydro-pyran-4-ylmethyl)-pyrrolidine-2-carboxylic acid (3-tert-butyl-isoxazol-5-yl)-amide]: the negative-log EC50 (pEC50) was 8.15.

On to `CC1CCCCC1N1CCC[C@H]1C(=O)Nc1nnc(C(C)(C)C)s1` (stereo partly shown) [1-(2-Methyl-cyclohexyl)-pyrrolidine-2-carboxylic acid (5-tert-butyl-1,3,4-thiadiazol-2-yl)-amide], for which the negative logarithm of the EC50 (pEC50) is 6.59.

Compound `Cn1nc(C(C)(C)C)cc1NC(=O)C1CCCN1c1ncc(C(F)(F)F)cc1Cl` (stereo not shown) [1-(3-Chloro-5-trifluoromethyl-pyridin-2-yl)-pyrrolidine-2-carboxylic acid (5-tert-butyl-2-methyl-2H-pyrazol-3-yl)-amide] had a pEC50 of 6.95.

`CC(C)(C)c1cc(NC(=O)C2CCCN2c2ncc(C(F)(F)F)cc2Cl)no1` (stereo not shown) [1-(3-Chloro-5-trifluoromethyl-pyridin-2-yl)-pyrrolidine-2-carboxylic acid (5-tert-butyl-isoxazol-3-yl)-amide] showed a negative-log EC50 (pEC50) of 10.40.

Consider `CC(C)(C)c1cc(NC(=O)C2CCCN2c2ccc(Cl)cn2)no1` (stereo not shown) [1-(5-Chloro-pyridin-2-yl)-pyrrolidine-2-carboxylic acid (5-tert-butyl-isoxazol-3-yl)-amide], for which the pEC50 is 9.44.

The compound `O=C(Nc1ccc(C(F)(F)F)cn1)C1CCCN1c1ccc(C(F)(F)F)cn1` (stereo not shown) [1-(5-Trifluoromethyl-pyridin-2-yl)-pyrrolidine-2-carboxylic acid (5-trifluoromethyl-pyridin-2-yl)-amide] had a negative-log EC50 (pEC50) of 6.48.

In the case of `CC(C)(C)c1cc(NC(=O)[C@@H]2CCCN2CC2CCCCO2)on1` (stereo partly shown) [1-(Tetrahydro-pyran-2-ylmethyl)-pyrrolidine-2-carboxylic acid (3-tert-butyl-isoxazol-5-yl)-amide], the negative logarithm of the EC50 (pEC50) is 9.76.

On to `CC(C)N1CCCC1C(=O)Nc1cc(C(C)(C)C)on1` (stereo not shown) [1-isopropyl-pyrrolidine-2-carboxylic acid (5-tert-butyl-isoxazol-3-yl)-amide], for which the pEC50 is 7.52.

Compound `CCC(C)N1CCC[C@H]1C(=O)Nc1nnc(C(C)(C)C)s1` (stereo partly shown) [1-sec-Butyl-pyrrolidine-2-carboxylic acid (5-tert-butyl-1,3,4-thiadiazol-2-yl)-amide] had a negative logarithm of the EC50 (pEC50) of 6.41.

Take `CC(C)(C)c1cc(NC(=O)[C@@H]2C[C@@H](O)CN2Cc2ccc(F)c(F)c2)on1` [(2S,4R)-1-(3,4-Difluoro-benzyl)-4-hydroxy-pyrrolidine-2-carboxylic acid (3-tert-butyl-isoxazol-5-yl)-amide]: the pEC50 is 8.16.

On to `CC(C)(C)c1cc(NC(=O)[C@@H]2C[C@@H](O)CN2Cc2ccc(F)c(F)c2)no1` [(2S,4R)-1-(3,4-Difluoro-benzyl)-4-hydroxy-pyrrolidine-2-carboxylic acid (5-tert-butyl-isoxazol-3-yl)-amide], for which the pEC50 is 7.91.

In turn, `CC(C)(C)c1cc(NC(=O)[C@@H]2C[C@@H](O)CN2c2ncc(C(F)(F)F)cc2Cl)on1` [(2S,4R)-1-(3-Chloro-5-trifluoromethyl-pyridin-2-yl)-4-hydroxy-pyrrolidine-2-carboxylic acid (3-tert-butyl-isoxazol-5-yl)-amide] showed a pEC50 of 8.49.

Compound `CC(C)(C)c1cc(NC(=O)[C@@H]2C[C@@H](O)CN2c2ncc(C(F)(F)F)cc2Cl)no1` [(2S,4R)-1-(3-Chloro-5-trifluoromethyl-pyridin-2-yl)-4-hydroxy-pyrrolidine-2-carboxylic acid (5-tert-butyl-isoxazol-3-yl)-amide] gave a negative-log EC50 (pEC50) of 8.30.

In turn, `CC(C)(C)c1cc(NC(=O)[C@@H]2C[C@@H](O)CN2c2ccc(Cl)cc2)no1` [(2S,4R)-1-(4-Chloro-phenyl)-4-hydroxy-pyrrolidine-2-carboxylic acid (5-tert-butyl-isoxazol-3-yl)-amide] had a pEC50 of 7.84.

Compound `CC(C)(CO)c1cc(NC(=O)[C@@H]2C[C@@H](O)CN2c2ccc(Cl)cc2)on1` [(2S,4R)-1-(4-Chloro-phenyl)-4-hydroxy-pyrrolidine-2-carboxylic acid [3-(2-hydroxy-1,1-dimethyl-ethyl)-isoxazol-5-yl]-amide] showed a negative-log EC50 (pEC50) of 6.71.

As to `COCC(C)(C)c1cc(NC(=O)[C@@H]2C[C@@H](O)CN2c2ccc(Cl)cc2)on1` [(2S,4R)-1-(4-Chloro-phenyl)-4-hydroxy-pyrrolidine-2-carboxylic acid [3-(2-methoxy-1,1-dimethyl-ethyl)-isoxazol-5-yl]-amide], the negative logarithm of the EC50 (pEC50) is 7.06.

With `COCC(C)(C)c1cc(NC(=O)[C@@H]2C[C@@H](O)CN2c2ccc(Cl)cc2)no1` [(2S,4R)-1-(4-Chloro-phenyl)-4-hydroxy-pyrrolidine-2-carboxylic acid [5-(2-methoxy-1,1-dimethyl-ethyl)-isoxazol-3-yl]-amide], the pEC50 was 7.09.

For the compound `CC(C)(C)c1cc(NC(=O)[C@@H]2C[C@@H](O)CN2C2CCCCC2)no1` [(2S,4R)-1-Cyclohexyl-4-hydroxy-pyrrolidine-2-carboxylic acid (5-tert-butyl-isoxazol-3-yl)-amide], the negative logarithm of the EC50 (pEC50) is 8.33.

For the compound `CC(C)(C)c1cc(NC(=O)[C@@H]2C[C@@H](O)CN2C2CCCC2)on1` [(2S,4R)-1-Cyclopentyl-4-hydroxy-pyrrolidine-2-carboxylic acid (3-tert-butyl-isoxazol-5-yl)-amide], the negative logarithm of the EC50 (pEC50) is 7.21.

`CC(C)(C)c1cc(NC(=O)[C@@H]2C[C@@H](O)CN2C2CCCC2)no1` [(2S,4R)-1-Cyclopentyl-4-hydroxy-pyrrolidine-2-carboxylic acid (5-tert-butyl-isoxazol-3-yl)-amide] had a pEC50 of 7.63.

On to `O=C(Nc1nc(-c2ccccc2)ns1)[C@@H]1C[C@@H](O)CN1c1ccc(C(F)(F)F)cn1` [(2S,4R)-4-Hydroxy-1-(5-trifluoromethyl-pyridin-2-yl)-pyrrolidine-2-carboxylic acid (3-phenyl-1,2,4-thiadiazol-5-yl)-amide], for which the negative-log EC50 (pEC50) is 6.45.

The same experiment, now with this note: CHO cells expressing human CB2R; inhibition of forskolin-stimulated cAMP synthesis; mean; read-out: CB2 CAMP @ EC50 nM (mean).
Usually EC50 stands for the midpoint of the concentration-response curve. Consider `O=C(Nc1ccc(C(F)(F)F)cn1)C1CCCN1c1ncc(C(F)(F)F)cc1Cl` (stereo not shown) [1-(3-Chloro-5-trifluoromethyl-pyridin-2-yl)-pyrrolidine-2-carboxylic acid (5-trifluoromethyl-pyridin-2-yl)-amide], for which the 50% effective concentration (EC50) turned out to be 23.2 nM.

Consider `CC(C)(C)OC(=O)CCN1CCC[C@H]1C(=O)Nc1cc(C(C)(C)C)no1` [3-[(S)-2-(3-tert-Butyl-isoxazol-5-ylcarbamoyl)-pyrrolidin-l-yl]-propionic acid tert-butyl ester], for which the EC50 was found to be 20 nM.

As to `O=C(NCC1CCCCC1)[C@@H]1C[C@@H](O)CN1C(=O)C1CCC(F)(F)CC1` [(2S,4R)-1-(4,4-Difluoro-cyclohexanecarbonyl)-4-hydroxy-pyrrolidine-2-carboxylic acid cyclohexylmethyl-amide], the concentration giving a half-maximal response (EC50) is 432 nM.
